One block for each substance: values may come before it.
Tests used:
[1] = Solubility and aggregation
recoverin = conditions: NMR structure, PDB 2I94; orientation opposite to that in NCS-1·GRK1 complex; cited from earlier work
Source text: The C-terminal α-helix in both complexes form one edge of the hydrophobic groove. […] Somewhat surprising are the differences observed between the NCS-1 ...

NCS-1 = experiment: Crystal structure of peptide complex with Ca2+/NCS-1 (copies bound, buried surface area); type: binding, Rattus norvegicus
Protocol: Purified proteins were equilibrated against 20 mM Tris-HCl, pH 7.5, and concentrated to 1 mM final protein concentration before initiating crystallization trials. For crystallization of the peptide complexes, a 2-fold excess of peptide was added to the protein solution. Crystals were grown at 20 °C using the sitting drop vapor diffusion method. NCS-1 was crystallized in 0.1 M sodium cacodylate, pH 6.5, 0.2 M sodium acetate, and 30% (w/v) PEG 8000, similar to the conditions previously reported ([27]). […]
For the NCS-1·D2R complex, molecular replacement used the structure of human NCS-1 (human and rat NCS-1 have 99% sequence identity; PDB accession 1G8I) and PHASER ([31]), as implemented from within PHENIX ([32]). […] At this stage, electron density for the helix for chain B was readily apparent, and a model for the helix was built in manually using COOT ([33]). […]
The structure of the NCS-1·GRK1 complex was determined using the coordinates from the A chain of the NCS-1 apoprotein and the program MOLREP ([38]), as implemented from within the CCP4 program suite ([39]). […] Electron density for a single GRK1 peptide per NCS-1 monomer, in a helical conformation, was readily detectable. […]
Data for NCS-1ΔCT were processed using MOSFLM ([37]) and SCALA ([30]). […] The four molecular copies of NCS-1ΔCT in this crystal form were readily identified in this way. […]

NCS-1ΔCT = experiment: NMR (1H-15N HSQC) of Ca2+/NCS-1ΔCT, titration with D2R peptide; type: binding, rat; conditions: 15N Ca2+/NCS-1ΔCT alone
Protocol: NCS-1 was prepared in 50 mM Tris-HCl buffer, pH 6.8, in the presence of 5 mM MgCl2 and 5 mM CaCl2. NMR spectra were recorded at 27 °C on Bruker DRX 800 and 600 MHz Avance II spectrometers equipped with CryoProbes. Data were processed using the Bruker software TopSpin and analyzed using CCPN software ([26]). Sequence-specific backbones were obtained using the HNCA, HN(CO)CA, HNCO, HN(CA)CO, CBCA(CO)NH, CBCANH, HBHA(CO)NH, and HCCH-TOCSY experiments.
FIGURE 9. NMR spectra and structure of rat Ca^2+/NCS-1ΔCT (PDB code 4YRU). A,^1H-^15N heteronuclear single quantum coherence spectra of ^15N Ca^2+/NCS-1ΔCT; B, in the presence of 5-fold excess of D2R peptide in 50 mM Tris-HCl buffer, 50 mM NaCl, 5 mM CaCl2, pH 6.5, 298 K. C, structure of the dimer of NCS-1ΔCT. Left, one monomer is shown as a backbone schematic and the other as a surface representation. Right, view of the hydrophobic binding site. Residues from helix 3 and the EF1/EF2 loop (Phe-48–Phe-58) are colored red, and residues in the EF3/EF4 loop region (Val-136–Pro-139) are colored brown. Conserved hydrophobic surface-exposed residues in the N-lobe site, which are involved with binding the D2R peptide, are highlighted in yellow (similar to those highlighted in Fig. 4B). D2R peptide in the N-site is shown with magenta ribbon for comparison. Ca^2+ ions are shown as brown spheres.

[2] = Size exclusion chromatography-multiangle laser light scattering (MALLS); type: physicochemical; conditions: SEC-MALLS, Superdex 75; 20 mM Tris-HCl, 150 mM NaCl, 1 mM CaCl2, pH 7.5; 1.5 mg/ml injected
Protocol: Measurements were performed on a Dionex BioLC HPLC connected to an 18-angle light scattering detector and a differential refractometer (DAWN HELEOS-II and OPTILab rEX, Wyatt). A Superdex 75 10/300 GL column (GE Healthcare) was used in 20 mM Tris-HCl, 150 mM NaCl, 1 mM CaCl2, pH 7.5, at a flow rate of 0.75 ml/min. Sample volumes of 1 ml were injected at a concentration of 1.5 mg/ml. Samples eluting from the column passed through an in-line DAWN HELEOS-II laser photometer (λ = 658 nm) and an OPTILab rEX refractometer with a QELS dynamic light scattering attachment. Light scattering intensity and eluant refractive index (concentration) were analyzed using ASTRA version 5.3.4.13 software to give a weight-averaged molecular mass. To determine the detector delay volumes and normalization coefficients for the MALLS detector, a BSA sample (Sigma A-8531) was used as reference.

Substance: TFNIEFRKAFLKILHC [reference compound]
solubility ([1]; in water): insoluble in water

aggregation [1]: propensity to aggregate
Substance: MDFGSLETVVANSAFIAARGSFDGS [GRK1 peptide, N terminus of GRK1, residues 1–25 (UniProt Q15835)]
binding site on recoverin (recoverin): binding only in the N-lobe site
buried surface area of peptide (NCS-1; GRK1 peptide in hydrophobic groove, PDB 5AFP): 921 Å^2
copies of peptide bound per NCS-1 molecule (NCS-1; crystal structure, Ca2+/NCS-1, 2-fold excess of peptide): one

Substance: NCS-1ΔCT: C-terminal truncated mutant of NCS-1, residues Ser-178–Val-190 deleted
NMR spectra of NCS-1ΔCT (NCS-1ΔCT): significant concentration-dependent line broadening
solution state [2]: polydisperse

— article PMC4513130, “Neuronal Calcium Sensor-1 Binds the D2 Dopamine Receptor and G-protein-coupled Receptor Kinase 1 (GRK1) Peptides Using Different Modes of Interactions” (The Journal of Biological Chemistry, 2015)
